Assay results reported in ChEMBL document CHEMBL5291721, “A preclinical secondary pharmacology resource illuminates target-adverse drug reaction associations of marketed drugs” (Nat Commun, 2023).

What was measured:
[1] = biological target: 5-hydroxytryptamine receptor 2B (Homo sapiens, UniProt P41595); assay type: functional, cell-based
Acetylcholinesterase = Acetylcholinesterase (Homo sapiens, UniProt P22303); assay type: functional
[2] = biological target: Prostaglandin G/H synthase 1 (Homo sapiens, UniProt P23219); assay type: functional
Bile salt export pump = Bile salt export pump (Homo sapiens, UniProt O95342); assay type: functional
Thromboxane A2 receptor [3] = biological target: T1, Thromboxane A2 receptor (Homo sapiens, UniProt P21731); assay type: functional, cell-based
T1 sequence (P21731 whole entry): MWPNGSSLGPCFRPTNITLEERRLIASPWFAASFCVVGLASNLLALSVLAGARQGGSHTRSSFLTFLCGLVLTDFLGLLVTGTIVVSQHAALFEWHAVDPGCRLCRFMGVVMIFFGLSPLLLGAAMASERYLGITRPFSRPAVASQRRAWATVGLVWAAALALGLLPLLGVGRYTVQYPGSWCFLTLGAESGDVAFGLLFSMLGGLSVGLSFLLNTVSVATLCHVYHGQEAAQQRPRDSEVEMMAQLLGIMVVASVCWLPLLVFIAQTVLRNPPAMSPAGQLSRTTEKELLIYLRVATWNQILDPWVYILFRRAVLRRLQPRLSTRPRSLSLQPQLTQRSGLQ

[4] = biological target: Voltage-gated inwardly rectifying potassium channel KCNH2 (Homo sapiens, UniProt Q12809); assay type: functional
[5] = biological target: Sodium-dependent dopamine transporter (Homo sapiens, UniProt Q01959)
Mu-type opioid receptor = Mu-type opioid receptor (Homo sapiens, UniProt P35372)
D(3) dopamine receptor = D(3) dopamine receptor (Homo sapiens, UniProt P35462)
[6] = biological target: T2, Amine oxidase [flavin-containing] A (Homo sapiens, UniProt P21397); assay type: functional
T2 sequence (P21397 whole entry): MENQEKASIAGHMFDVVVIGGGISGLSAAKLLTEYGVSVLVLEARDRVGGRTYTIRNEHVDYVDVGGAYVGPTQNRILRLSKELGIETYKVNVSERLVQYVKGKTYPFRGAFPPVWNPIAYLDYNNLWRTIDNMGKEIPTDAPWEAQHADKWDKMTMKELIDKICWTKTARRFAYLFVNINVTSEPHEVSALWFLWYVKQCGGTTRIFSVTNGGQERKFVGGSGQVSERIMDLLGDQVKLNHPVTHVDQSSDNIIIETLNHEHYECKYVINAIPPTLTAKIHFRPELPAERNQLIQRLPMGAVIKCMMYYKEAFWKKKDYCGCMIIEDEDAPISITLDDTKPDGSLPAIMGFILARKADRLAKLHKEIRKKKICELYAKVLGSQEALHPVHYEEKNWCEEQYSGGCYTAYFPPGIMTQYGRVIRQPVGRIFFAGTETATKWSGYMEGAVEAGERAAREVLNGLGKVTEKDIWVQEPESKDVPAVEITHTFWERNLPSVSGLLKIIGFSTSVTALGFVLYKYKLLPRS

Prothrombin = Prothrombin (Homo sapiens, UniProt P00734); assay type: functional
Histamine H3 receptor = Histamine H3 receptor (Homo sapiens, UniProt Q9Y5N1)
Thromboxane A2 receptor [7] = biological target: T1, Thromboxane A2 receptor; assay type: functional, cell-based; remark: listed apart in the source
[8] = biological target: T3, 5-hydroxytryptamine receptor 1A (Homo sapiens, UniProt P08908)
T3 sequence (P08908 whole entry): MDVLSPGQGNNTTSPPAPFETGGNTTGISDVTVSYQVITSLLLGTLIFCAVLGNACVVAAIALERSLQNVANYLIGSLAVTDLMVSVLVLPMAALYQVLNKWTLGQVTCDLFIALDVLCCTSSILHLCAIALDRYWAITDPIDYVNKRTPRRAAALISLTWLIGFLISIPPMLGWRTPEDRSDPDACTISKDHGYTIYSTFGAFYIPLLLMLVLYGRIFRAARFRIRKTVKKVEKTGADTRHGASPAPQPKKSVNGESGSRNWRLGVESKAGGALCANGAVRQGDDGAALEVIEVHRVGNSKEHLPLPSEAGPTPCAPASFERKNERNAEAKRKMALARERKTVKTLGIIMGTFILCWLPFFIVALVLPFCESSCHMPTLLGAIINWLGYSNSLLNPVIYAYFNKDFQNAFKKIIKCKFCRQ

D(1A) dopamine receptor = D(1A) dopamine receptor (Homo sapiens, UniProt P21728)
[9] = biological target: Sodium-dependent noradrenaline transporter (Homo sapiens, UniProt P23975)
[10] = biological target: T4, Muscarinic acetylcholine receptor M2 (Homo sapiens, UniProt P08172)
T4 sequence (P08172 whole entry): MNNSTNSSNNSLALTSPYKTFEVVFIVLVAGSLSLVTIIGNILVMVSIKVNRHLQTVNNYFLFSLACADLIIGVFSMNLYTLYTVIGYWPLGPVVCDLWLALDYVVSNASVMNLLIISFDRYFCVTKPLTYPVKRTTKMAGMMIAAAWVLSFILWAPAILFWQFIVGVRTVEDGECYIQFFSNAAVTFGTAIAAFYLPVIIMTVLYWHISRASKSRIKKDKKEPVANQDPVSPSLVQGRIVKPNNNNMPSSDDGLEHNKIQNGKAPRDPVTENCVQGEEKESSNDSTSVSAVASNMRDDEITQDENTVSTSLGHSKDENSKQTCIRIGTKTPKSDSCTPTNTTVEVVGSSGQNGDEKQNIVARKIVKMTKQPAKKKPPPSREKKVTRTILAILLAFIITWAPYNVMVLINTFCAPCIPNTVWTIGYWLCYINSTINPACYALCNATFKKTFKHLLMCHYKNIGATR
Also: assay procedure not described here.

Sequence of Acetylcholinesterase (P22303 whole entry): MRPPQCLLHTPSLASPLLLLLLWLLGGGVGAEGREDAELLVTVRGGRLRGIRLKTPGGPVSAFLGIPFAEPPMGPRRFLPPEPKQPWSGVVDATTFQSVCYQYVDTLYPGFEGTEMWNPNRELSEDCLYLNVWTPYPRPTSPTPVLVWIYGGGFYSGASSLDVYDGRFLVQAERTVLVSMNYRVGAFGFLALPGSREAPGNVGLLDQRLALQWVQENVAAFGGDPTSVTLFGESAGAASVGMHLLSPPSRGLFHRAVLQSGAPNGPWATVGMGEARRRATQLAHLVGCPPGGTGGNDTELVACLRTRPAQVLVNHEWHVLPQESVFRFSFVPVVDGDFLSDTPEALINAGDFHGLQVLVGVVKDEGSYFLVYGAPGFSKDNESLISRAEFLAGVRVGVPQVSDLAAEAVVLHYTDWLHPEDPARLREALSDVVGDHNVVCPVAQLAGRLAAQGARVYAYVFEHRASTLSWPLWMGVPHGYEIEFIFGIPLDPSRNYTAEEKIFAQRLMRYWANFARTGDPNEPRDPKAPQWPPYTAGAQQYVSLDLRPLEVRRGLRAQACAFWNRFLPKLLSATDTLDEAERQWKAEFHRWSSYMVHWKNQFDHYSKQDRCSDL
Sequence of Voltage-gated inwardly rectifying potassium channel KCNH2 (Q12809 whole entry): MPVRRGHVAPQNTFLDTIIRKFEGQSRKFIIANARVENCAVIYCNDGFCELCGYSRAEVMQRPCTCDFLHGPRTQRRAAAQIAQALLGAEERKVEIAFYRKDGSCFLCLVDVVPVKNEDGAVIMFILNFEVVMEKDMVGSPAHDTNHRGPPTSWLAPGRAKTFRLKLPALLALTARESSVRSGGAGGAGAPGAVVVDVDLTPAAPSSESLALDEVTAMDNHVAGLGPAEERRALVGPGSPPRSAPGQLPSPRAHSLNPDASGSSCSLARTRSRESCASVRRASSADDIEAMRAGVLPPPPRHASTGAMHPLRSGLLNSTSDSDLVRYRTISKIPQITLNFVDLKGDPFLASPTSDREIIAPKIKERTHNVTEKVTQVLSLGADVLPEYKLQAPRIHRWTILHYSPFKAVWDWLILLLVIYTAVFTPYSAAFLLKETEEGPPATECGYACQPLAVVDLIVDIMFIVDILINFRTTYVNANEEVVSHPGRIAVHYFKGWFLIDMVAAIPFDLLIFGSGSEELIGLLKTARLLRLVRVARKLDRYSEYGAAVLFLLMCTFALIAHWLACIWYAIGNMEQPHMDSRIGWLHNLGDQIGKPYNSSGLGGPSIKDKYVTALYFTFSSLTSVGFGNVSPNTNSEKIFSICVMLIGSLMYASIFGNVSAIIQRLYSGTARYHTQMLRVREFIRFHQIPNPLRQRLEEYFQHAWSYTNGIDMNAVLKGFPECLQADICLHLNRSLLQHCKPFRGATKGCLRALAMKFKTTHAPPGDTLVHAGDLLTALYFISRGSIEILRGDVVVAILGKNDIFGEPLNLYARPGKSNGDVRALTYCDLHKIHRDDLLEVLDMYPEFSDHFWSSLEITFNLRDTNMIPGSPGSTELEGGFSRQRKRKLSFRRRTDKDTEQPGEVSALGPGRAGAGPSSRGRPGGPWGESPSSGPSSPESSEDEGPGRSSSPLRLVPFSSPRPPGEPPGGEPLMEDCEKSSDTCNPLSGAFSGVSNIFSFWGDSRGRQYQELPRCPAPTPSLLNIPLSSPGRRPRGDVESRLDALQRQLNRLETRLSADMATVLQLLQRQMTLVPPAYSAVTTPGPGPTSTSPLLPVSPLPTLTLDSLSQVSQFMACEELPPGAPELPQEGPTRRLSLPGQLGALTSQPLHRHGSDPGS
Sequence of D(3) dopamine receptor (P35462 whole entry): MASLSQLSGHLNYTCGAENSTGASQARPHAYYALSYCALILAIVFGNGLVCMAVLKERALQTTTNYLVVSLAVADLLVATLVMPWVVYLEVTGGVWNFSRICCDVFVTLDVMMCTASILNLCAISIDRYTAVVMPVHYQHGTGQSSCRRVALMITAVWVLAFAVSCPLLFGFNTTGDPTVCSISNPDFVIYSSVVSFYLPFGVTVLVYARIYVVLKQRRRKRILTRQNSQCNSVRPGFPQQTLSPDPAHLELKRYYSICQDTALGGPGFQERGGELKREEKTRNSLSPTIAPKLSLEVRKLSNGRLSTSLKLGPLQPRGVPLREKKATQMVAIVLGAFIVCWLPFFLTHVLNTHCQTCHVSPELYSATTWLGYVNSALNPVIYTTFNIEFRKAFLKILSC
Sequence of D(1A) dopamine receptor (P21728 whole entry): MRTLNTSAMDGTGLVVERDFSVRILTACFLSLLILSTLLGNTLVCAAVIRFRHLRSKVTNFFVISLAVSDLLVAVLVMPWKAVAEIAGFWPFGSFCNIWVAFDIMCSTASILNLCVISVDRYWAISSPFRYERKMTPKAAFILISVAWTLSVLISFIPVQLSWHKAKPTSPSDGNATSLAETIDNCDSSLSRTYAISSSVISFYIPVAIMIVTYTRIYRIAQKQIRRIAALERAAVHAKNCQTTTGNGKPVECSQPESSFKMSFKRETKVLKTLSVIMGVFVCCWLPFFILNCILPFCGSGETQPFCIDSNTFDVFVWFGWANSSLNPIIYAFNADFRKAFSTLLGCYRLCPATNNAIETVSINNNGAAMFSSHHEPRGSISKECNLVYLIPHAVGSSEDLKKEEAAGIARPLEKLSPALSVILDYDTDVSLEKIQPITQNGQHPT
Sequence of Mu-type opioid receptor (P35372 whole entry): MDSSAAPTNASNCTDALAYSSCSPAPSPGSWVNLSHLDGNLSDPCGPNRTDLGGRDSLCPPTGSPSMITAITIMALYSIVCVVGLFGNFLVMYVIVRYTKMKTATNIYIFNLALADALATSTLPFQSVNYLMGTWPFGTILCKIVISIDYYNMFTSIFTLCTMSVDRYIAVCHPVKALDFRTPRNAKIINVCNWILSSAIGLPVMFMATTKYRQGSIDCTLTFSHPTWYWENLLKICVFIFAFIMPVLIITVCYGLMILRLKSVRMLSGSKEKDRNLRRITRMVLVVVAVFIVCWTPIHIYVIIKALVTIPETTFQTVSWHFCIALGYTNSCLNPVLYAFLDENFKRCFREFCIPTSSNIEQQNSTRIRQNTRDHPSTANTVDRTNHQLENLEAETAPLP
Sequence of 5-hydroxytryptamine receptor 2B (P41595 whole entry): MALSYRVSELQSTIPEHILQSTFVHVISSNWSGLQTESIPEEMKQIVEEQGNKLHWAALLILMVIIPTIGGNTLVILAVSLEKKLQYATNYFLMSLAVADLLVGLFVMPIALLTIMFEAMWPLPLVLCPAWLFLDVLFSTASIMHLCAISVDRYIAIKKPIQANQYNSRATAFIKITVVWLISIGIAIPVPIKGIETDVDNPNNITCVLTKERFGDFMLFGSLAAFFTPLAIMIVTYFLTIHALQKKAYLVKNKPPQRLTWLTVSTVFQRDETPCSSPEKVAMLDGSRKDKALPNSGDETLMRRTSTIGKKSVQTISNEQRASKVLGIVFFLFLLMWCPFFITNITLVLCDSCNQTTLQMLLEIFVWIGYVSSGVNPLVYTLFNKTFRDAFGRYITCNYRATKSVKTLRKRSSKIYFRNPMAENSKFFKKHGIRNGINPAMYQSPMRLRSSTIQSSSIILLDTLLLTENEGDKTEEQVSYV
Sequence of Prostaglandin G/H synthase 1 (P23219 whole entry): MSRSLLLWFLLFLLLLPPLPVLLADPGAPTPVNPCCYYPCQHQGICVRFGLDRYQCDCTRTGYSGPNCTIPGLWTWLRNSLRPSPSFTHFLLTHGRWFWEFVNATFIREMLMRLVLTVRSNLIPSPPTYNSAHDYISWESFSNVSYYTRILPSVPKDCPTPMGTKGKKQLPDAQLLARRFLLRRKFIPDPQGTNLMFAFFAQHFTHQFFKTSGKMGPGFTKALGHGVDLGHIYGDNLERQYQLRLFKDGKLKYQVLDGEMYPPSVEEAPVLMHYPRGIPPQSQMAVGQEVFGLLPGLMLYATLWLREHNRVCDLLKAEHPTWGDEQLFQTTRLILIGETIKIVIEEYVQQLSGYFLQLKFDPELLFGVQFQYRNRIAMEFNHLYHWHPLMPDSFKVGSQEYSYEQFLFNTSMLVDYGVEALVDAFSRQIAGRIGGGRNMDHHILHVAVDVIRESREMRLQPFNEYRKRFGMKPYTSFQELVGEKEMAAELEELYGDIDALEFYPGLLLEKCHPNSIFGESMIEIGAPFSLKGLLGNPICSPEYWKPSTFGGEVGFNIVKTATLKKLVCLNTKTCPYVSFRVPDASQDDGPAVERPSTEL
Sequence of Sodium-dependent dopamine transporter (Q01959 whole entry): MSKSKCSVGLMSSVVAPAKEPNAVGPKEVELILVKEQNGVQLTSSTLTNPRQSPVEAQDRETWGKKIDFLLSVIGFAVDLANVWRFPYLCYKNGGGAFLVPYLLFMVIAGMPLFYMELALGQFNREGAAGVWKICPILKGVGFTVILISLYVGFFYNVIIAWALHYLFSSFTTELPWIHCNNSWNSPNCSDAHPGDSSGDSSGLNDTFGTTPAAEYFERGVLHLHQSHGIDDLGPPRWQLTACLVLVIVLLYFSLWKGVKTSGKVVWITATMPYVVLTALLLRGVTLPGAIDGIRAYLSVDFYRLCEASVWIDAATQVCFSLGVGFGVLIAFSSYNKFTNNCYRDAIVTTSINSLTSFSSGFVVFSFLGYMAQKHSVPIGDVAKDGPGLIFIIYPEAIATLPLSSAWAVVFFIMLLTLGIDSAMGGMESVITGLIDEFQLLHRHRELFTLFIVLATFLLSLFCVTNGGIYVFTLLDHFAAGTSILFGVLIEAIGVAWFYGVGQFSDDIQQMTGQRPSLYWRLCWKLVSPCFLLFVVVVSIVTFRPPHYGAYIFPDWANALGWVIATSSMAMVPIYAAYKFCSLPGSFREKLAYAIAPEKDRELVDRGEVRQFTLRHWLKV

Compound | AC50 [1] | AC50 (Acetylcholinesterase) | AC50 [2] | AC50 (Bile salt export pump) | AC50 (Thromboxane A2 receptor [3]) | AC50 [4] | AC50 [5] | AC50 (Mu-type opioid receptor) | AC50 (D(3) dopamine receptor) | AC50 [6] | AC50 (Prothrombin) | AC50 (Histamine H3 receptor) | AC50 (Thromboxane A2 receptor [7]) | AC50 [8] | AC50 (D(1A) dopamine receptor) | AC50 [9] | AC50 [10]
O=C(O)COc1ccc(C(=O)c2cccs2)c(Cl)c1Cl | > 30 µM | > 30 µM | > 30 µM | > 300 µM | > 30 µM | > 30 µM | > 30 µM | > 30 µM | > 30 µM | > 30 µM | > 30 µM | > 30 µM | > 30 µM | > 30 µM | > 30 µM | > 30 µM | > 30 µM
CCCN(CCC)C(=O)Cc1c(-c2ccc(Cl)cc2)nc2ccc(Cl)cn12 [ALPIDEM] | > 30 µM | > 30 µM | > 30 µM | 4.8 µM | > 10 µM | 14.8 µM | > 30 µM | 15.5 µM | 27.8 µM | > 30 µM | > 30 µM | > 30 µM | > 30 µM | > 30 µM | > 30 µM | > 30 µM | > 30 µM
COc1cc2nccc(Oc3ccc(NC(=O)C4(C(=O)Nc5ccc(F)cc5)CC4)cc3)c2cc1OC [CABOZANTINIB] | > 30 µM | > 30 µM | > 30 µM | 8.8 µM | 17.5 µM | 8.3 µM | > 30 µM | > 30 µM | > 30 µM | 25.4 µM | > 30 µM | > 30 µM | > 30 µM | > 30 µM | 4.42 µM | > 30 µM | 9.32 µM
OC[C@H]1O[C@@H](c2ccc(Cl)c(Cc3ccc(O[C@H]4CCOC4)cc3)c2)[C@H](O)[C@@H](O)[C@@H]1O [EMPAGLIFLOZIN] | > 30 µM | > 30 µM | > 30 µM | > 300 µM | > 30 µM | > 30 µM | > 30 µM | > 30 µM | > 30 µM | > 30 µM | > 30 µM | > 30 µM | > 30 µM | > 30 µM | > 30 µM | > 30 µM | > 30 µM
CC(C)(O)CNc1nc(Nc2ccnc(C(F)(F)F)c2)nc(-c2cccc(C(F)(F)F)n2)n1 [ENASIDENIB] | > 30 µM | > 30 µM | 9.18 µM | 5.3 µM | 7.09 µM | > 30 µM | > 30 µM | 21.5 µM | > 30 µM | > 30 µM | > 30 µM | > 30 µM | > 30 µM | > 30 µM | > 30 µM | > 30 µM | > 30 µM
CC(C)C[C@H](NC(=O)CNC(=O)c1cc(Cl)ccc1Cl)B(O)O [IXAZOMIB] | > 30 µM | > 30 µM | > 30 µM | > 300 µM | > 30 µM | > 30 µM | > 30 µM | > 30 µM | > 30 µM | > 30 µM | > 30 µM | > 30 µM | > 30 µM | > 30 µM | > 30 µM | > 30 µM | > 30 µM
C[N+](C)(C)C[C@H](O)CC(=O)[O-] [LEVOCARNITINE] | > 30 µM | > 30 µM | > 30 µM | > 300 µM | > 30 µM | > 30 µM | > 30 µM | > 30 µM | > 30 µM | > 30 µM | > 30 µM | > 30 µM | > 30 µM | > 30 µM | > 30 µM | > 30 µM | > 30 µM
CCCC(CCC)C(=O)O [VALPROIC ACID] | > 30 µM | > 30 µM | > 30 µM | > 300 µM | > 30 µM | – | > 30 µM | > 30 µM | > 30 µM | > 30 µM | > 30 µM | > 30 µM | > 30 µM | > 30 µM | > 30 µM | > 30 µM | > 30 µM
